# Paper PMC4298654, “In vivo formation of N-acyl-fumonisin B1” (Mycotoxin Research, 2014)
# Read-outs that look alike come from different tables or passages of the source.
# Legend:
# [1] = In vivo formation of NAFB1 and NAHFB1 in rat kidney and liver (HPLC-ESI-MS/MS); settings: kidney; FB1 2.77 or HFB1 2.47 μmol/kg body weight per day ip, 5 days
# rat liver and kidney = experiment: Histological examination of rat liver and kidney; format: in vivo; settings: ip, 5 days; FB1 0.5, 1.0, 2.0 mg/kg or HFB1 1.0 mg/kg body weight per day; n = 2/group
# Description: The study protocol was approved by the Institutional Animal Care and Use Committee, Richard B. Russell Agricultural Research Center, Athens, GA. Male Sprague–Dawley rats (Harlan Industries, Indianapolis, IN, USA), 7 weeks of age at receipt, were individually housed in stainless steel, wire mesh cages in an environmentally controlled room having a 12-h light/dark cycle. Food (2019 Global Rodent Diet, Teklad, Madison, WI, USA) and fresh tap water were provided ad libitum. After a 1 week acclimation period, the animals were randomly assigned to five groups (n = 2/group) having mean weights of 215 to 216 g (weight range of all animals, 211 to 220 g). For five consecutive days, they were observed, weighed, and given an intraperitoneal injection (ip) of 0 (vehicle), 0.5, 1.0, or 2.0 mg/kg body weight FB1 (provided by R. Eppley, US FDA), 1.0 mg/kg body weight HFB1 (positive control) (Voss et al. [2009]), or vehicle (0.9 % physiological saline). […] In order to compare the effects of FB1 and HFB1, dosages will be expressed as molar concentrations and, on this basis, the high dose of FB1 is roughly equivalent to that of the positive control dose of HFB1. […] The kidney and liver specimens were fixed in 10 % neutral buffered formalin, processed, and microscopically evaluated without knowledge of the animal’s identity or treatment group. […]
# sphingolipid metabolism = experiment: Sphingolipid levels in rat kidney and liver after ip FB1 or HFB1; format: in vivo; settings: 5 days; for levels of sphingoid bases and 1-phosphates (total sphingosine, total sphinganine) in tissues compared to vehicle-treated controls: ip
# Description: (§1) The study protocol was approved by the Institutional Animal Care and Use Committee, Richard B. Russell Agricultural Research Center, Athens, GA. Male Sprague–Dawley rats (Harlan Industries, Indianapolis, IN, USA), 7 weeks of age at receipt, were individually housed in stainless steel, wire mesh cages in an environmentally controlled room having a 12-h light/dark cycle. Food (2019 Global Rodent Diet, Teklad, Madison, WI, USA) and fresh tap water were provided ad libitum. After a 1 week acclimation period, the animals were randomly assigned to five groups (n = 2/group) having mean weights of 215 to 216 g (weight range of all animals, 211 to 220 g). For five consecutive days, they were observed, weighed, and given an intraperitoneal injection (ip) of 0 (vehicle), 0.5, 1.0, or 2.0 mg/kg body weight FB1 (provided by R. Eppley, US FDA), 1.0 mg/kg body weight HFB1 (positive control) (Voss et al. [2009]), or vehicle (0.9 % physiological saline). These doses corresponded to 0.69, 1.38, and 2.77 μmol FB1/kg body weight and 2.47 μmol/kg body weight HFB1 per day. In order to compare the effects of FB1 and HFB1, dosages will be expressed as molar concentrations and, on this basis, the high dose of FB1 is roughly equivalent to that of the positive control dose of HFB1. Dosing solutions were sterile filtered and administered at a volume rate of 10 ml/kg body weight. The animals were fasted overnight prior to administration of the final dose. The rats were euthanized (CO2 inhalation and exsanguination) 60 to 90 min following the final dose administration and examined by necropsy. The kidney and liver specimens were fixed in 10 % neutral buffered formalin, processed, and microscopically evaluated without knowledge of the animal’s identity or treatment group. Three representative liver and kidney specimens (100 mg each) were also collected, immediately frozen, and stored (−80 °C) until processed, at which time the tissues were thawed and homogenized in distilled/deionized water (1 ml water/100 mg tissue). The homogenates were lyophilized before they were shipped by overnight courier for the analysis of fumonisin metabolites and sphingolipids.
# (§2) Lyophilized liver and kidney tissues (100 mg wet weight equivalents) were processed for the quantification of FB1, HFB1, NAFB1, NAHFB1, and sphingolipids. Preparation of the tissue samples was performed according to a previously published method (Harrer et al. [2013]). For the quantification of FB1 and HFB1, a d6-labeled derivative of FB1 (FB1-d6) was used as the internal standard. Synthetic derivatives with a heptadecanoic fatty acid (C17:0) residue were used as internal standards for the quantification of N-acyl-fumonisins and ceramides (N-C17:0-FB1, N-C17:0-HFB1, and N-C17:0-ceramide). The sphingoid bases and their phosphate derivatives were quantified using synthetic derivatives with a C17-acyl-backbone: sphingosine (C17:1), sphingosine-1-phosphate (C17:1), sphinganine (C17:0), sphinganine-1-phosphate (C17:0) as internal standards. The standards were dissolved in methanol:chloroform (2:1, v/v) and then mixed with the tissue samples. The samples spiked with internal standard were kept at room temperature for 30 min before being processed further. The internal standard-spiked samples were first extracted with ethyl acetate, isopropanol, and water (60:30:10, v/v/v) and a second time using methanol, chloroform, and water (60:30:10, v/v/v). The extracts were combined, the solvents removed by evaporation, and the dried samples stored at−80 °C till analyzed.
# [2] = Tissue FB1 and HFB1 concentrations in rat kidney and liver (HPLC-ESI-MS/MS); format: in vivo; settings: HFB1 2.47 μmol/kg body weight per day ip, 5 days
# Description: as §1, §2
# For the analysis, the samples were reconstituted in a mixture of water, methanol, and tetrahydrofurane (60:24:16, v/v/v). The NAFB1 and NAHFB1 derivatives having the following fatty acyl chain lengths were quantified by HPLC-MS/MS: C16:0, C18:0, C20:0, C22:0, C24:0, C26:0. Furthermore, we also quantified the unsaturated derivatives C24:1 and C26:1. The results are given as the sum of all N-acyl derivatives of FB1 or HFB1. […]
# [3] = design: method as in Martinez-Larranaga et al. 1999; settings: single dose, ref Martinez-Larranaga et al. 1999, cited from earlier work
# [4] = rats fed with fumonisin-contaminated diet; ref Riley and Voss 2006; cited from earlier work
# [5] = design: method as in Bulder et al. 2012; settings: ref Bulder et al. 2012; cited from earlier work
# [6] = kidney, dose High: 2.77 μmol FB1/kg or 2.47 μmol HFB1/kg body weight per day ip
# [7] = liver, dose High: 2.77 μmol FB1/kg or 2.47 μmol HFB1/kg body weight per day ip
# [8] = kidney, dose Low: 0.69 μmol FB1/kg body weight per day ip
# [9] = kidney, dose Mid: 1.38 μmol FB1/kg body weight per day ip
# [10] = liver, dose Low: 0.69 μmol FB1/kg body weight per day ip
# [11] = liver, dose Mid: 1.38 μmol FB1/kg body weight per day ip
smiles,measurement,setting,value
"CCCC[C@@H](C)[C@@H](O)[C@@H](O)C[C@@H](C)C[C@H](O)CCCC[C@@H](O)C[C@H](O)[C@H](C)N [HFB1, Hydrolyzed fumonisin B1, reference compound]",metabolites of the dosed mycotoxin found in the kidney,[1],less than 0.5 nmol/g
same,microscopic appearance of kidney and liver,rat liver and kidney,could not be differentiated from that of tissues from the vehicle control group
same,"levels of sphingoid bases and 1-phosphates (total sphingosine, total sphinganine) in tissues compared to vehicle-treated controls",sphingolipid metabolism; kidney and liver,did not cause any significant changes
same,Sa/So ratio,sphingolipid metabolism; [6],0.3 ± 0.0
same,sphinganine (Sa),sphingolipid metabolism; [6],3 ± 0.7 nmol/g
same,sphinganine-1-phosphate (Sa1P),sphingolipid metabolism; [6],0.6 ± 0.4 nmol/g
same,sphingosine (So),sphingolipid metabolism; [6],9 ± 2.8 nmol/g
same,sphingosine-1-phospate (So1P),sphingolipid metabolism; [6],0.4 ± 0.1 nmol/g
same,Sa/So ratio,sphingolipid metabolism; [7],0.5 ± 0.4
same,sphinganine (Sa),sphingolipid metabolism; [7],2 ± 1 nmol/g
same,sphinganine-1-phosphate (Sa1P),sphingolipid metabolism; [7],0.1 ± 0.1 nmol/g
same,sphingosine (So),sphingolipid metabolism; [7],3 ± 0.2 nmol/g
same,sphingosine-1-phospate (So1P),sphingolipid metabolism; [7],0.2 ± 0.0 nmol/g
same,HFB1 molar concentration in the liver relative to the kidney,[2],about sixfold higher
same,HFB1 molar concentration in tissue,[2]; kidney,0.27 nmol/g
same,"unmetabolized HFB1 accumulated in tissue, % of the total dose (TD)",[2]; kidney,< 0.1 % TD
same,"total amount of HFB1 species in tissue, % of the total dose (TD)","[2]; kidney, HFB1 plus N-acyl metabolites",0.03 % TD
same,HFB1 molar concentration in tissue,[2]; liver,1.78 nmol/g
same,"unmetabolized HFB1 accumulated in tissue, % of the total dose (TD)",[2]; liver,0.7 % TD
"CCCC[C@@H](C)[C@@H](OC(=O)C[C@@H](CC(=O)O)C(=O)O)[C@H](C[C@@H](C)C[C@H](O)CCCC[C@@H](O)C[C@H](O)[C@H](C)N)OC(=O)C[C@@H](CC(=O)O)C(=O)O [FB1, Fumonisin B1]",AUCtissue/AUCplasma ratio,[3]; kidney,29.9
same,AUCtissue/AUCplasma ratio,[3]; liver,2.03
same,metabolites of the dosed mycotoxin found in the kidney,[1],less than 0.5 nmol/g
same,FB1 concentration (ng/g wet weight) in the kidney relative to the liver,[4],approximately tenfold higher
same,microscopic appearance of kidney and liver,rat liver and kidney,"Mild to moderate apoptotic, mitotic, and other effects consistent with fumonisin exposure"
same,tissue ceramide concentrations,"sphingolipid metabolism; kidney and liver, FB1 ip",decreased in both tissues
same,"levels of sphingoid bases and 1-phosphates (total sphingosine, total sphinganine) in tissues compared to vehicle-treated controls",sphingolipid metabolism; kidney and liver,increased amounts
same,Sa/So ratio,sphingolipid metabolism; [6],3.8 ± 1.8
same,sphinganine (Sa),sphingolipid metabolism; [6],207 ± 79.9 nmol/g
same,sphinganine-1-phosphate (Sa1P),sphingolipid metabolism; [6],19.9 ± 1.0 nmol/g
same,sphingosine (So),sphingolipid metabolism; [6],56 ± 6.2 nmol/g
same,sphingosine-1-phospate (So1P),sphingolipid metabolism; [6],21.6 ± 4.5 nmol/g
same,Sa/So ratio,sphingolipid metabolism; [8],4.1 ± 1.0
same,sphinganine (Sa),sphingolipid metabolism; [8],252 ± 15.6 nmol/g
same,sphinganine-1-phosphate (Sa1P),sphingolipid metabolism; [8],16.7 ± 0.5 nmol/g
same,sphingosine (So),sphingolipid metabolism; [8],63 ± 11.5 nmol/g
same,sphingosine-1-phospate (So1P),sphingolipid metabolism; [8],21.4 ± 4.1 nmol/g
same,Sa/So ratio,sphingolipid metabolism; [9],2.5 ± 0.2
same,sphinganine (Sa),sphingolipid metabolism; [9],146 ± 11.3 nmol/g
same,sphinganine-1-phosphate (Sa1P),sphingolipid metabolism; [9],11.3 ± 1.5 nmol/g
same,sphingosine (So),sphingolipid metabolism; [9],59 ± 8.3 nmol/g
same,sphingosine-1-phospate (So1P),sphingolipid metabolism; [9],20.8 ± 0.7 nmol/g
same,Sa/So ratio,sphingolipid metabolism; [7],5.9 ± 0.0
same,sphinganine (Sa),sphingolipid metabolism; [7],81 ± 17.1 nmol/g
same,sphinganine-1-phosphate (Sa1P),sphingolipid metabolism; [7],0.9 ± 0.5 nmol/g
same,sphingosine (So),sphingolipid metabolism; [7],14 ± 2.9 nmol/g
same,sphingosine-1-phospate (So1P),sphingolipid metabolism; [7],1.0 ± 0.3 nmol/g
same,Sa/So ratio,sphingolipid metabolism; [10],4.2 ± 0.9
same,sphinganine (Sa),sphingolipid metabolism; [10],68 ± 27.6 nmol/g
same,sphinganine-1-phosphate (Sa1P),sphingolipid metabolism; [10],0.2 ± 0.2 nmol/g
same,sphingosine (So),sphingolipid metabolism; [10],16 ± 3.3 nmol/g
same,sphingosine-1-phospate (So1P),sphingolipid metabolism; [10],0.4 ± 0.2 nmol/g
same,Sa/So ratio,sphingolipid metabolism; [11],5.5 ± 1.2
same,sphinganine (Sa),sphingolipid metabolism; [11],88 ± 15.1 nmol/g
same,sphinganine-1-phosphate (Sa1P),sphingolipid metabolism; [11],0.4 ± 0.1 nmol/g
same,sphingosine (So),sphingolipid metabolism; [11],17 ± 6.4 nmol/g
same,sphingosine-1-phospate (So1P),sphingolipid metabolism; [11],0.8 ± 0.0 nmol/g
same,absorption after oral exposure,[5],< 5 % of dose
